Paper PMC5520944 (Cell Death & Disease, 2017)
Where a name gives a salt, the structure may show the parent alone. Read-outs that look alike come from different tables or passages of the source.

Experiments:
L929sAhFas [1] = experiment: cells; parameters: high-content necroptosis screen, percentage PI-positive nuclei as percent of DMSO plus stimulus control
Text: To identify novel inhibitors or regulators of necroptosis, 500 small compounds from libraries targeting autophagy, kinases, phosphatases, proteases and redox balance were screened for their ability to block TNF-induced necroptosis in murine L929sAhFas cells. Three conditions were used to induce necroptosis in L929 cells: TNF alone, TNF+TAK1 inhibitor (TAK1i) and TNF+zVAD-fmk, a pan-caspase inhibitor. Inhibition of TAK1 or caspases sensitizes to necroptosis.[13], [32] Necroptosis, measured as the percentage of PI-positive nuclei normalized to the plate-specific DMSO control, was determined for each compound (Supplementary Figure 1A). […] After compound treatment, L929sAhFas (a) or L929 (b) cells were stimulated with mTNF (T), mTNF+Tak1i (TiT) or mTNF+zVAD (zVT) (Supplementary Figure 1A and B). (a) Cell death percentage (% PI-positive nuclei) or cell loss was calculated as percent of control (DMSO+stimulus). […] (b) Cell loss (luminescence-based readout for ATP) was calculated as percent of control (DMSO+stimulus). […] In stimulated conditions, % PI-positive nuclei was determined as % of DMSO control. Data represent mean values±S.E.M. of two independent experiments. Cells were stained with Hoechst and PI and percentage PI-positive nuclei was determined using high-content image analysis (BD pathway Bioimager). (d) L929sAhFas cells were treated with Sorafenib (concentration as indicated) for 24 h. Then, stimulus was removed, 50 cells/condition seeded and colonies counted with crystal violet staining after 10 days incubation. […] Schemes of workflow screening assays in L929 cell lines. (A) Scheme of the workflow of a high-content screening assay on L929sAhFas cells using mTNF (T) and mTNF+Tak1i ((5Z)-7-Oxozeaenol) (TiT) to induce necroptotic cell death. Nec-1 and zVAD-fmk were used as protective and sensitizing benchmarks, respectively, on all plates. (B) Scheme of the workflow of a CellTiter-Glo luminescent cell viability screening assay on L929 cells using mTNF+zVAD (zVT) to induce necroptotic cell death. Supplementary Figure S2. Z’ calculation for cell death screening assays in L929 cells. (A) Z’ calculation for cell death screening assay (Fig. 1A) in mTNF-stimulated L929sAhFas cells. (B) Z’ calculation for cell death screening assay (Fig. 1A) in L929sAhFas cells stimulated with mTNF + Taki.

L929sAhFas [2] = experiment: cells; parameters: high-content necroptosis screen, percentage PI-positive nuclei as percent of DMSO plus stimulus control; conditions: mTNF-induced cell death, validation screen; read-out: Validation screen IC50 (µM) (TNF)
Text: To identify novel inhibitors or regulators of necroptosis, 500 small compounds from libraries targeting autophagy, kinases, phosphatases, proteases and redox balance were screened for their ability to block TNF-induced necroptosis in murine L929sAhFas cells. Three conditions were used to induce necroptosis in L929 cells: TNF alone, TNF+TAK1 inhibitor (TAK1i) and TNF+zVAD-fmk, a pan-caspase inhibitor. Inhibition of TAK1 or caspases sensitizes to necroptosis.[13], [32] Necroptosis, measured as the percentage of PI-positive nuclei normalized to the plate-specific DMSO control, was determined for each compound (Supplementary Figure 1A). Z’ values for the TNF- and TNF+TAK1i-induced cell death assay were 0.498 and 0.919, respectively (Supplementary Figures 2A and B), indicating good assay performance. Sorafenib was identified as an effective inhibitor of both TNF- and TNF+TAK1i-induced necroptosis (Figure 1a). […] In an independent screening with 437 FDA-approved drugs and TNF+zVAD-fmk as necroptosis trigger in L929 cells (Supplementary Figure 1B), Sorafenib was also shown to be a potent inhibitor (Figure 1b). […] After compound treatment, L929sAhFas (a) or L929 (b) cells were stimulated with mTNF (T), mTNF+Tak1i (TiT) or mTNF+zVAD (zVT) (Supplementary Figure 1A and B). (a) Cell death percentage (% PI-positive nuclei) or cell loss was calculated as percent of control (DMSO+stimulus). Green points marked by the green dotted line represent a selection of kinase inhibitors from the screening on L929sAhFas cells (Supplementary Table 1), that are only slightly protective in the TNF-stimulated condition. (b) Cell loss (luminescence-based readout for ATP) was calculated as percent of control (DMSO+stimulus). […] In stimulated conditions, % PI-positive nuclei was determined as % of DMSO control. Data represent mean values±S.E.M. of two independent experiments. Cells were stained with Hoechst and PI and percentage PI-positive nuclei was determined using high-content image analysis (BD pathway Bioimager). (d) L929sAhFas cells were treated with Sorafenib (concentration as indicated) for 24 h. Then, stimulus was removed, 50 cells/condition seeded and colonies counted with crystal violet staining after 10 days incubation. Quantification was performed using ImageJ. n=2, a representative experiment is shown Legends supplementary figures Supplementary Figure S1. Schemes of workflow screening assays in L929 cell lines. (A) Scheme of the workflow of a high-content screening assay on L929sAhFas cells using mTNF (T) and mTNF+Tak1i ((5Z)-7-Oxozeaenol) (TiT) to induce necroptotic cell death. Nec-1 and zVAD-fmk were used as protective and sensitizing benchmarks, respectively, on all plates. (B) Scheme of the workflow of a CellTiter-Glo luminescent cell viability screening assay on L929 cells using mTNF+zVAD (zVT) to induce necroptotic cell death. Supplementary Figure S2. Z’ calculation for cell death screening assays in L929 cells. (A) Z’ calculation for cell death screening assay (Fig. 1A) in mTNF-stimulated L929sAhFas cells. (B) Z’ calculation for cell death screening assay (Fig. 1A) in L929sAhFas cells stimulated with mTNF + Taki.

[3] = read-out: cell death TNF/Taki (POC)

| Structure (SMILES) | activity at 10 µM (L929sAhFas [1]; read-out: cell death TNF (POC)) [%] | activity at 10 µM (L929sAhFas [1]; [3]) [%] | IC50 (L929sAhFas [2]) [µM] |
| --- | --- | --- | --- |
| N#CC(=Cc1ccc2[nH]ccc2c1)C(N)=C(C#N)C#N [AG-370] | 86 | 99.7 | – |
| C[S+]([O-])c1ccc(-c2nc(-c3ccc(F)cc3)c(-c3ccncc3)[nH]2)cc1 (centres unmarked) [SB-203580] | 108 | 99.6 | – |
| CC(C)(C)c1cc(C=C(C#N)C#N)cc(C(C)(C)C)c1O [TYRPHOSTIN 9] | 41.8 | 95.8 | 4.45 |
| O=C1Nc2ccccc2/C1=C1/Nc2ccccc2C1=O [Indirubin] | 91.7 | 99.1 | – |
| C[C@@H](N)[C@H]1CC[C@H](C(=O)Nc2ccncc2)CC1 [Y-27632·2HCl] | 93.3 | 98.6 | – |
| C=CC(=O)c1ccc2ccccc2c1 [ZM 449829] | 87.3 | 99.6 | – |
| Nc1ncnc2c1c(I)cn2[C@@H]1O[C@H](CO)[C@@H](O)[C@H]1O [5-Iodotubercidin] | 229 | 101 | – |
| N#CC(C#N)=Cc1ccc([N+](=O)[O-])c(O)c1 [AG-126] | 94.7 | 99.4 | – |
| COc1cc2ncnc(Nc3cccc(Cl)c3)c2cc1OC [TYRPHOSTIN AG 1478] | 84.2 | 98.7 | – |
| Oc1ccc(-c2nc(-c3ccc(F)cc3)c(-c3ccncc3)[nH]2)cc1 [SB-202190] | 110 | 96.3 | – |
| CC1=C(O)C(=O)[C@@H]2O[C@@H]2C1=O [Terreic acid] | 104 | 99.1 | – |
| CN(C)c1ccc(/C=C2\C(=O)Nc3ccccc32)cc1 [SU 4312] | 69.6 | 96.8 | 26.4 |
| CC(C)(C)n1nc(-c2ccc(Cl)cc2)c2c(N)ncnc21 [PP2] | 127 | 100 | – |
| N#CC(C#N)=Cc1cc(O)c(O)c([N+](=O)[O-])c1 [TYRPHOSTIN AG 1288] | 81.1 | 99.7 | – |
| COC[C@H]1OC(=O)c2coc3c2[C@@]1(C)C1=C(C3=O)[C@@H]2CCC(=O)[C@@]2(C)C[C@H]1OC(C)=O [Wortmannin] | 99.4 | 101 | – |
| N#CC(C#N)=C(N)/C(C#N)=C/c1ccc(O)cc1 [Tyrphostin AG112] | 89.4 | 98.7 | – |
| N#CC(C#N)=C(N)/C(C#N)=C/c1cc(O)c(O)c(O)c1 [TYRPHOSTIN 51] | 116 | 101 | – |
| O=c1cc(N2CCOCC2)oc2c(-c3ccccc3)cccc12 [LY 294002] | 85.7 | 99.2 | – |
| N#C/C(=C\c1ccc(O)c(O)c1)C(N)=O [TYRPHOSTIN 46] | 97.8 | 99.8 | – |
| O=C(O)c1cc(N(Cc2ccccc2O)Cc2cc(O)ccc2O)ccc1O [Lavendustin A] | 85.9 | 100 | – |
| O=C1Cc2c([nH]c3ccc(Br)cc23)-c2ccccc2N1 [Kenpaullone] | 162 | 99.9 | – |
| O=C1Nc2ccc(I)cc2/C1=C/c1cc(Br)c(O)c(Br)c1 [GW 5074] | 90 | 99.1 | – |
| N#CC(C#N)=Cc1ccc(O)c(O)c1 [TYRPHOSTIN 23] | 88.9 | 100 | – |

| Structure (SMILES) | activity at 10 µM (L929sAhFas [1]; read-out: cell death TNF (POC)) [%] | activity at 10 µM (L929sAhFas [1]; [3]) [%] | IC50 (L929sAhFas [2]) [µM] |
| --- | --- | --- | --- |
| COc1cc(/C=C(\C#N)C(N)=O)cc(CSc2nc3ccccc3s2)c1O [AG-825] | 80.1 | 99.4 | – |
| C#Cc1cccc(Nc2ncnc3cc(OC)c(OC)cc23)c1 [BML-265] | 118 | 99.6 | – |
| C/C(O)=C(\C#N)C(=O)Nc1cc(Br)ccc1Br [LFM-A13] | 93.5 | 100 | – |
| O=P(O)(O)C(O)c1ccc2ccccc2c1 (centres unmarked) [HNMPA] | 80.3 | 100 | – |
| COc1cccc(-c2cc(=O)c3ccccc3o2)c1N [PD-98059] | 70.9 | 98.9 | – |
| O=c1c(-c2ccc(O)cc2)coc2cc(O)cc(O)c12 [Genistein] | 86.1 | 99.3 | – |
| CCN(CC)CCNC(=O)c1c(C)[nH]c(/C=C2\C(=O)Nc3ccc(Cl)cc32)c1C [SU11652] | 194 | 104 | – |
| Cc1ccc(NC(=O)c2ccc(CN3CCN(C)CC3)cc2)cc1Nc1nccc(-c2cccnc2)n1 [Imatinib mesylate] | 63.9 | 96.1 | – |
| Cc1cc2ncc(-c3ccccc3)nc2cc1C [TYRPHOSTIN AG 1295] | 93.6 | 100 | – |
| N#C/C(=C\c1ccc(O)c(O)c1)C(N)=S [TYRPHOSTIN 47] | 93 | 100 | – |
| O=S(=O)(c1cccc2c(Cl)cccc12)N1CCCNCC1 [ML-9·HCl] | 84.8 | 99.8 | – |
| Cc1ccc(NC(=O)c2cccc(N(C)C)c2)cc1NC(=O)c1ccc(O)cc1 [ZM 336372] | 81.9 | 99.4 | – |
| O=C(O)c1ccc2nc(-c3ccccc3)c(-c3ccccc3)nc2c1 [BML-257] | 91.3 | 99.7 | – |
| N#CC(C#N)=Cc1cc(O)c(O)c(O)c1 [TYRPHOSTIN 25] | 90 | 100 | – |
| N#C/C(=C\c1cc(Cl)cc(Cl)c1)c1cccnc1 [RG-14620] | 95.9 | 99.8 | – |
| CC(C)c1cc(/C=C(\C#N)C(=O)NCCCc2ccccc2)cc(C(C)C)c1O [SU1498] | 91.7 | 99.2 | – |
| c1ccc2c(-c3ccncc3)c[nH]c2c1 [Rockout] | 106 | 99 | – |
| Cn1cnc(N)c2ncnc1-2 [3-Methyladenine] | 88.7 | 102 | – |
| Cc1ccc(-c2nn(C(C)(C)C)c3ncnc(N)c23)cc1 [PP1] | 114 | 100 | – |
| O=S(=O)(c1cccc2c(I)cccc12)N1CCCNCC1 [ML-7·HCl] | 90.2 | 99.4 | – |
| O=c1c(O)c(-c2ccc(O)c(O)c2)oc2cc(O)cc(O)c12 [Quercetin·2H2O] | 90.4 | 98.5 | – |
| N#CC(=C(/N)Sc1ccccc1N)/C(C#N)=C(\N)Sc1ccccc1N [U-0126] | 69.7 | 98.7 | – |
